Measurements reported in patent US6656911B2, “Serine protease inhibitors” (Cortech, Inc., priority 1994, dated 2003).

Biological target: T1, human neutrophil elastase (HNE) (Homo sapiens, UniProt P08246)
T1 sequence (P08246 30-267): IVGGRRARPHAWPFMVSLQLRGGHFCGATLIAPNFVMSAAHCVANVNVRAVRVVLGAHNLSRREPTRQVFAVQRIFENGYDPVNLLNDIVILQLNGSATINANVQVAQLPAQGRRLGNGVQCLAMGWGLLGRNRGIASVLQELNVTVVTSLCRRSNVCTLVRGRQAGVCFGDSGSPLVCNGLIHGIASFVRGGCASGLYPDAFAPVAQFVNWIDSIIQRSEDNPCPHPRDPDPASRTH
Test: HNE Ki of CE compounds, tested as described in WO 96/16080
Format: biochemical
Conditions: read-out: HNE Ki

Compound | Ki
Cc1cccc(Cc2nnc(C(=O)[C@@H](NC(=O)Cn3c(=O)c(NC(=O)OCc4ccccc4)cc4ccccc43)C(C)C)o2)c1 [CE2108, 3-[(Benzyloxycarbonyl)amino]-quinoline-2-one-N-[1-(2-[5-(3-methylbenzyl)-1,3,4-oxadiazolyl]carbonyl)-2-(S)-methylpropyl]acetamide] | 10.5 nM
Cc1cccc(Cc2nnc(C(=O)[C@@H](NC(=O)CN3CCC(n4c(=O)[nH]c5ccccc54)CC3)C(C)C)o2)c1 [CE2212, 3-[1-(4-Piperidine)]-benzimidazolidin-2-one-N-[1-(2-[5-(3-methylbenzyl)-1,3,4-oxadiazolyl]carbonyl)-2-(S)-methylpropyl]acetamide] | 124 nM
CC(C)[C@H](NC(=O)CN1C(=O)NC(c2ccccc2)C1=O)C(=O)c1noc(Cc2cccc(C(F)(F)F)c2)n1 (stereo partly drawn) [CE2198, 4-(R,S)-Phenyl-2,5-imidazolidinedione-N-[1-(3-[5-(3-trifluoromethylbenzyl)-1,2,4-oxadiazolyl]carbonyl)-2-(S)-methylpropyl]acetamide] | 3.1 nM
CC(C)[C@H](NC(=O)CN1Cc2ccccc2NC1=O)C(=O)c1noc(Cc2cccc(C(F)(F)F)c2)n1 [CE2219, 1,4-Quinazolin-2-one-N-[1-(3-[5-(3-trifluoromethylbenzyl)-1,2,4-oxadiazolyl]carbonyl)-2-(S)-methylpropyl]acetamide] | 537 nM
3-(S)-[(4-Morpholino carbonyl-butanoyl)amino]-ε-lactam-N-[1-(2-[5-(3-methylbenzyl)-1,3,4-oxadiazolyl]carbonyl)-2-(R,S)-methylpropyl]acetamide [CE2091] | 270 nM
CC(C)[C@H](NC(=O)[C@@H]1CCCN1C(=O)[C@@H](NC(=O)OCc1ccccc1)C(C)C)C(=O)c1noc(CC2CCCCC2)n1 [CE2069] | 4.4 nM
CC(C)C(NC(=O)CN1C(=O)C(Cc2ccccc2)N(CCN2CCOCC2)C1=O)C(=O)c1noc(Cc2cccc(C(F)(F)F)c2)n1 [CE2181, 1-(N-Morpholinoethyl)-5-(S)-benzyl-2,4-imidazolidinedione-N-[1-(3-[5-(3-trifluoromethylbenzyl)-1,2,4-oxadiazolyl]carbonyl)-2-(R,S)-methylpropyl]acetamide] | 46 nM
CC(C)[C@H](NC(=O)CN1C(=O)CN(Cc2ccccc2)C(=O)[C@H]1Cc1ccccc1)C(=O)c1noc(Cc2cccc(C(F)(F)F)c2)n1 [CE2146, 4-[1-Benzyl-3-(R)-benzylpiperazine-2,5,-dione]-N-[1-(3-(5-(3-trifluoromethylbenzyl)-1,2,4-oxadiazolyl]carbonyl)-2-(S)-methylpropyl]acetamide] | 67 nM
Cc1cccc(Cc2nnc(C(=O)[C@@H](NC(=O)[C@@H]3CCCN3C(=O)[C@@H](NC(=O)OC(C)C)C(C)C)C(C)C)o2)c1 [CE2202, Isopropyloxycarbonyl-L-valyl-N-[1-(2-[5-(3-methylbenzyl)-1,3,4-oxadiazolyl]carbonyl)-2-(S)-methylpropyl]-L-prolinamide] | 0.12 nM
CC(C)C(NC(=O)CN1C(=O)CN(C)C(=O)C1c1ccccc1)C(=O)c1noc(Cc2cccc(C(F)(F)F)c2)n1 [CE2084, 4-[1-Methyl-3-(R,S)-phenylpiperazine-2,5,-dione]-N-[1-(3-[5-(3-trifluoromethylbenzyl)-1,2,4-oxadiazolyl]carbonyl)-2-(S)-methylpropyl]acetamide] | 133 nM
CC(C)[C@H](NC(=O)Cn1c(-c2ccc(F)cc2)ncc(N)c1=O)C(=O)c1noc(Cc2cccc(C(F)(F)F)c2)n1 [CE2090] | 2.7 nM
CC(C)C(NC(=O)CN1C(=O)C(c2ccccc2)N(CCN2CCOCC2)C1=O)C(=O)c1noc(Cc2cccc(C(F)(F)F)c2)n1 [CE2193, 1-(N-Morpholinoethyl)-5-(R,S)-phenyl-2,4-imidazolidindione-N-[1-(3-[5-(3-trifluoromethylbenzyl)-1,2,4-oxadiazolyl]carbonyl)-2-(R,S)-methylpropyl]acetamide] | 36 nM
CC(C)[C@H](NC(=O)[C@@H]1CCCN1C(=O)[C@@H](NC(=O)OCc1ccccc1)C(C)C)C(=O)c1noc(Cc2cc(C(F)(F)F)cc(C(F)(F)F)c2)n1 [CE2054, (Benzyloxycarbonyl)-L-valyl-N-[1-(3-[5-(3,5-ditrifluoromethylbenzyl)-1,2,4-oxadiazolyl]carbonyl)-2-(S)-methylpropyl]-L-prolinamide] | 0.29 nM
Cc1cccc(Cc2nnc(C(=O)C(NC(=O)CN3C(=O)CCSC3c3ccccc3)C(C)C)o2)c1 [CE2118, 2-[2-(R,S)-Phenyl-4-oxometathiazan-3-yl]-N-[1-(2-[5-(3-methylbenzyl)-1,3,4-oxadiazolyl]carbonyl)-2-(S)-methylpropyl]acetamide] | 13.2 nM
Cc1cccc(Cc2nc(C(=O)C(NC(=O)CN3C(=O)C(N)N=C(c4ccccc4)c4ccccc43)C(C)C)no2)c1 [CE2221, (R,S)-3-Amino-2-oxo-5-phenyl-1,4-benzodiazepine-N-[1-(3-[5-(3-methylbenzyl)-1,2,4-oxadiazolyl]carbonyl)-2-(R,S)-methylpropyl]acetamide] | 34 nM
CC(C)[C@H](NC(=O)[C@@H]1CCCN1C(=O)[C@@H](NC(=O)OCc1ccccc1)C(C)C)C(=O)c1noc(Cc2cccc3ccccc23)n1 [CE2077, (Benzyloxycarbonyl)-L-valyl-N-[1-(3-[5-(1-napthylmethylene)-1,2,4-oxadiazolyl]carbonyl)-2-(S)-methylpropyl]-L-prolinamide] | 0.15 nM
Cc1cccc(Cc2nnc(C(=O)[C@@H](NC(=O)CN3C(=O)CN(C(=O)OCc4ccccc4)C[C@H]3Cc3ccccc3)C(C)C)o2)c1 [CE2190, [1-Benzyloxycarbonyl-5-(R)-benzylpipeazin-3-one]-N-[1-(2-[5-(3-methylbenzyl)-1,3,4-oxadiazolyl]carbonyl)-2-(S)-methylpropyl]acetamide] | 29 nM
CC(=O)N1c2ccccc2C[C@H]1C(=O)N[C@H](C(=O)c1noc(Cc2cccc(C(F)(F)F)c2)n1)C(C)C [CE2143, Acetyl-2-L-(2,3-dihydro-1H-indole)-N-[1-(3-[5(3-trifluoromethylbenzyl)-1,2,4-oxadiazolyl]carbonyl)-2-(S)-methylpropyl]amide] | 11.5 nM
Cc1cccc(Cc2nnc(C(=O)C(NC(=O)CN3CC(=O)NC[C@H]3c3ccccc3)C(C)C)o2)c1 (stereo partly drawn) [CE2208, (2-(R)-Phenylpiperazin-5-one)-N-[1-(2-[5-(3-methylbenzyl)-1,3,4-oxadiazolyl]carbonyl)-2-(R,S)-methylpropyl]acetamide] | 40 nM

Now from value to compound:

Ki | Compound
22.7 nM | Cc1cccc(Cc2nnc(C(=O)[C@@H](NC(=O)CN(Cc3ccccc3)C(=O)Cc3ccccc3)C(C)C)o2)c1 [CE2210, (N-Benzylcarbonyl)-N-(benzyl)glycyl-N-[1-(2-[5-(3-methylbenzyl)-1,3,4,-oxadiazolyl]carbonyl)-2-(S)-methylpropyl]amide]
17 nM | Cc1cccc(Cc2nnc(C(=O)[C@@H](NC(=O)Cn3c(=O)c(NC(=O)OCc4ccccc4)cc4ccc(N5CCCCC5)cc43)C(C)C)o2)c1 [CE2107, 3-[(Benzyloxycarbonyl)amino]-7-piperidinyl-quinoline-2-one-N-[1-(2-[5-(3-methylbenzyl)-1,3,4-oxadiazolyl]carbonyl)-2-(S)-methylpropyl]acetamide]
1.05 nM | CC(C)[C@H](NC(=O)[C@@H]1CCCN1C(=O)[C@@H](NC(=O)OCc1ccccc1)C(C)C)C(=O)c1noc(Cc2cccnc2)n1 [CE2078, (Benzyloxycarbonyl)-L-valyl-N-[1-(3-[5-(3-pyridylmethyl)-1,2,4-oxadiazolyl]carbonyl)-2-(S)-methylpropyl]-L-prolinamide]
0.41 nM | COc1cc(Cc2nc(C(=O)[C@@H](NC(=O)[C@@H]3CCCN3C(=O)[C@@H](NC(=O)OCc3ccccc3)C(C)C)C(C)C)no2)cc(OC)c1 [CE2053, (Benzyloxycarbonyl)-L-valyl-N-[1-(3-[5-(3,5-dimethoxybenzyl)-1,2,4-oxadiazolyl]carbonyl)-2-(S)-methylpropyl]-L-prolinamide]
78.5 nM | 2-Oxo-5-methyl-1,4-(1-thiophenodiazepine)-N-[1-(2-[5-(3-methylbenzyl)-1,3,4-oxadiazolyl]carbonyl)-2-(S)-methylpropyl]acetamide [CE2244]
260 nM | CC(C)[C@H](NC(=O)CN1CCCC(NC(=O)OCc2ccccc2)C1=O)C(=O)c1noc(Cc2cccc(C(F)(F)F)c2)n1 (stereo partly drawn) [CE2160, 3-(R,S)-[(Benzyloxycarbonyl)amino-δ-lactam]-N-[1-(3-[5-(3-trifluoromethylbenzyl)-1,2,4-oxadiazolyl]carbonyl)-2-(S)-methylpropyl]acetamide]
25 nM | CC(=O)N1CC(=O)N(CC(=O)N[C@H](C(=O)c2nnc(Cc3cccc(C)c3)o2)C(C)C)C(=Cc2ccncc2)C1=O [CE2114, 1-Acetyl-3-[(4-pyridyl)methylene] piperazine-2,5-dione-N-[1-(2-[5-(3-methylbenzyl)-1,3,4-oxadiazolyl]carbonyl)-2-(S)-methylpropyl]acetamide]
41 nM | Cc1cccc(Cc2nnc(C(=O)C(NC(=O)CN3C(=O)CN(C)C(=O)C3c3ccccc3)C(C)C)o2)c1 [CE2106, 4-[1-Methyl-3-(R,S)-phenylpiperazine-2,5,-dione]-N-[1-(2-[5-(3-methylbenzyl)-1,3,4-oxadiazolyl]carbonyl)-2-(S)-methylpropyl]acetamide]
104 nM | Cc1cccc(Cc2nnc(C(=O)C(NC(=O)CN3C(=O)C[S+]([O-])C3Cc3ccccc3)C(C)C)o2)c1 [CE2136, 2-[(2-(R,S)-Benzyl-4-oxothiazolidin-3-yloxide]-N-[1-(2-[5-(3-methylbenzyl)-1,3,4-oxadiazolyl]carbonyl)-2-(R,S)-methylpropyl]acetamide]
0.33 nM | Cc1cccc(Cc2nnc(C(=O)[C@@H](NC(=O)[C@@H]3CCCN3C(=O)[C@@H](NC(=O)N3CCOCC3)C(C)C)C(C)C)o2)c1 [CE2104, (Morpholino-N-carbonyl)-L-valyl-N-[1-(2-[5-(3-methylbenzyl)-1,3,4-oxadiazolyl]carbonyl)-2-(S)-methylpropyl]-L-prolinamide]
